# Data published in patent US20240132513A1, “BENZAZEPINE DERIVATIVES, COMPOSITIONS, AND METHODS FOR TREATING COGNITIVE IMPAIRMENT” (AGENEBIO, INC., priority 2022, published 2024).
# Read-outs that look alike come from different tables or passages of the source.
# Tests used:
# [1] = molecular target: α5β3γ2 GABAA R (Homo sapiens, UniProt P18507+P31644); assay: Binding activity on GABAA R: inhibition of [3H]Ro15-1788 binding, α5 containing receptor
# Protocol: Tissue culture and Membrane Preparation: The binding was performed on Ltk cells stably expressing GABAA R: […], α2β3γ2, α3β3γ2 and α5β3γ2 (provided by Merck Co., NJ, USA). Cells were seeded in 100 mm culture plates in DMEM/F12 medium containing 10% serum and antibiotics in 5% CO2 and allowed to grow for 1-2 days. GABAAR expression was then induced by dexamethasone as follows: 0.5 μM for 1 day for α5 containing and 2 μM for 3 days for α1, α2 and α3 containing GABAARs. After induction, cells were collected by scraping into Dulbecco's Phosphate buffered saline (DPBS, pH 7.4, Invitrogen, Carlsbad, CA, USA) and centrifuged at 150×g for 10 min. The pellet was washed twice by re-suspension and centrifugation. The cell pellets from at least 5 different preps were combined, suspended in the binding assay buffer (50 mM KH2PO4; 1 mM EDTA; 0.2 M KCl, pH 7.4) and membranes prepared by sonication (3-5 times, 30 sec) using Branson Sonifier 150 (G. Heinmann, Germany). Protein content was determined using BCA assay (Bio-Rad Labs, Reinach, Switzerland) with Bovine Serum Albumin (Sigma Aldrich, St. Louis, MO, USA) as the standard. Aliquots were prepared and stored at −20° C. for further use in binding assays.
# Ligand Binding: Saturation binding curves were obtained by incubating membranes with increasing concentrations (0.01-8 nM) of [^3H]Rol5-1788 (Flumazepil, 75-85 Ci/mmol, PerkinElmer, MA, USA), with nonspecific binding measured in the presence of 10 μM diazepam.
# All binding assays were performed for 1 h at 4° C. in assay buffer. The total assay volume was 0.5 ml containing 0.2 mg/ml protein for α5 and 0.4 mg/ml for α1, α2, and α3 containing GABAAR membranes. Incubations were terminated by filtration through GF/B filters using a 24-Cell Harvestor (Brandel, Gaithersburg, MD, USA) followed by 3 washes with ice-cold assay buffer. Filters were transferred to scintillation vials, 5 ml scintillation liquid added, vortex-mixed and kept in dark. Next day, radioactivity was obtained using a scintillation counter (Beckman Coulter, Brea, CA, USA). All assays were performed in triplicate.
# Data Analyses: Saturation and inhibition curves were obtained using GraphPad Prism software (GraphPad Software, Inc., CA, USA).
# [2] = molecular target: T1, GABAA R (α5β2γ2) (Homo sapiens, UniProt P18507+P31644); assay: Positive allosteric modulator activity: potentiation of EC20 GABA current in oocytes; assay type: cell-based
# T1 construct: expressed in transfected cells
# T1 sequence (P31644 32-462): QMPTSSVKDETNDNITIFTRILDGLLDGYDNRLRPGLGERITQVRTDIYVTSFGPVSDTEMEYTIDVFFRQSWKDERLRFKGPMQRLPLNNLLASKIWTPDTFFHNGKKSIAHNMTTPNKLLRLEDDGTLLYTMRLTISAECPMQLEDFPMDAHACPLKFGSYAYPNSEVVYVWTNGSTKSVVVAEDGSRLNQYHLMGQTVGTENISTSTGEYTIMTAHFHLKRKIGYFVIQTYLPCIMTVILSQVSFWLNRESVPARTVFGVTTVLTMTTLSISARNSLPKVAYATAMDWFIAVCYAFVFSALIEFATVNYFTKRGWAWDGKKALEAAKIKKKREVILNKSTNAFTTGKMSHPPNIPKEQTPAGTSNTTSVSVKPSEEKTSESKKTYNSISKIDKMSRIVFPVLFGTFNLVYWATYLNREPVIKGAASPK
# T1 sequence (P47870 25-512 partner limits assumed): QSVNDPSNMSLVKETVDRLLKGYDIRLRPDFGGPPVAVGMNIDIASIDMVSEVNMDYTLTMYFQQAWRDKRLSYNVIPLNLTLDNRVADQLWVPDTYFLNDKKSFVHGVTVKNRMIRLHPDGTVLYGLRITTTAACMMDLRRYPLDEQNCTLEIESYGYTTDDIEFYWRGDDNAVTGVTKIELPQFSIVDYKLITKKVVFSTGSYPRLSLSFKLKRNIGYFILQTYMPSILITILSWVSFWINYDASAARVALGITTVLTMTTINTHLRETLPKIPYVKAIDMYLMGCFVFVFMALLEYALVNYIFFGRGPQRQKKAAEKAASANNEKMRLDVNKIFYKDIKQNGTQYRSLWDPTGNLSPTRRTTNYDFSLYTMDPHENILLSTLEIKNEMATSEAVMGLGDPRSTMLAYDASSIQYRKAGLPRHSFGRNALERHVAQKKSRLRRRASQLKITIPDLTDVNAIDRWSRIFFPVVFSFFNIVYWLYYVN
# T1 sequence (P18507 40-475): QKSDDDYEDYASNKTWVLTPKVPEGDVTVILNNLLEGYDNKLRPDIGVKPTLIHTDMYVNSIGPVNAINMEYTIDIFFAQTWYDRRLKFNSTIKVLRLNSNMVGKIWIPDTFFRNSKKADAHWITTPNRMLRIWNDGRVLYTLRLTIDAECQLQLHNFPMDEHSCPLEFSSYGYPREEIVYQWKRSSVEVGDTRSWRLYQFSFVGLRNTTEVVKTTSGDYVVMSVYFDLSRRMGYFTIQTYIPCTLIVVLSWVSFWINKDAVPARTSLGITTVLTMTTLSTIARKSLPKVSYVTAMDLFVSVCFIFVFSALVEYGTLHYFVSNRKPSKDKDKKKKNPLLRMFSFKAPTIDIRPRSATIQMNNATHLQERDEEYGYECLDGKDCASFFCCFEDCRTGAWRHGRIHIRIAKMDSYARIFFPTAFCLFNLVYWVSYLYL
# Protocol: On day 1, 1 ng/32 nL of GABAA α5β2γ2 cDNA was injected into one oocyte. Test starts on day 2. The cDNA injected to the oocytes was a mix of alpha, beta and gamma, their ratio is 1:1:10 (by weight) and the total weight of the mixed 3 subunits to be injected in one oocyte was 1 ng in 32 nl volume. The injected oocytes can also be tested on day 3. In such case, the cDNA amount injected to the oocytes should be reduced by 20%.
# Compounds of the present disclosure were tested using the following procedures.
# 8 oocytes were placed in 8 chambers of OpusXpress and superfused with Modified Barth's Saline (MBS) at 3 mL/min. Glass electrodes back-filled with 3M KCl (0.5-3 megaohms) were used. Membrane potential of oocytes was voltage-clamped at −60 mV. • 2).
# Control Test (Diazepam or Methyl 3,5-Diphenylpyridazine-4-Carboxylate) • 1). New oocytes was used to run new test. • 2). […] Oocytes were washed with MBS for 5-10 min. • 4). […] Itest was divided by IGABA to obtain potentiation (%).
# Test Compounds at Multiple Doses • 1). Repeat the above steps 1), 2) and 3) in the control test. • 2). […] Divide Itest by IGABA to obtain potentiation (%). • 3). Discard all tested oocytes, new oocytes were used and the above steps 1) and 2) were repeated to test second concentration of the same compound. Each oocyte was used for only one concentration test for a single test compound. The steps were repeated for other test compounds.
# [3] = read-out: GABA α5 Functional Data: potentiation, @ 100 nM, EC20 GABA, ranges of the column heads
# [4] = ranges of the column heads, [3H]Ro15-1788, Ltk cell membranes
# [5] = read-out: GABA α5 Functional Data: potentiation
# Sequence of α5β3γ2 GABAA R (P31644 32-462): as the sequence (P31644 32-462) above
# Sequence of α5β3γ2 GABAA R (P28472 26-473 partner): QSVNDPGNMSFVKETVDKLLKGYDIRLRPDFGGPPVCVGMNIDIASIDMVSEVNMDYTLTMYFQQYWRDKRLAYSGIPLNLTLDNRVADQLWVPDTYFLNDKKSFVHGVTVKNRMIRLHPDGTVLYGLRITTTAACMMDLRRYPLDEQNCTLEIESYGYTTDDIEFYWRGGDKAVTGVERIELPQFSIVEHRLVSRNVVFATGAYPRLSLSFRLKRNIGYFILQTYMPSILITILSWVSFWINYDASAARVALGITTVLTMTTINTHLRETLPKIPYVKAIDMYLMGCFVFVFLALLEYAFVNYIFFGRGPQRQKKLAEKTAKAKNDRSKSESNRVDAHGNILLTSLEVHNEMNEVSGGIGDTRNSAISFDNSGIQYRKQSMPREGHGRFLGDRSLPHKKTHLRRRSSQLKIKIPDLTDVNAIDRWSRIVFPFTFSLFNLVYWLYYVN
# Sequence of α5β3γ2 GABAA R (P18507 40-475): as the sequence (P18507 40-475) above
structure (smiles),measurement,setting,value
COc1ccc2c(c1)-c1nn(C)cc1Cc1c(-c3noc([C@H]4CCOC4)n3)ncn1-2 [Compound 257],Ki,[1],< 100 nM
same,activation at 0.1 µM,[2]; [3],20 to 50%
COc1ccc2c(c1)-c1nn(C)cc1Cc1c(-c3noc(C(C)C)n3)ncn1-2 [Compound 109],Ki,[1]; [4],< 100 nM
same,activation at 0.1 µM,[2]; [5],20 to 50%
CCn1cc2c(n1)-c1cc(Cl)ccc1-n1cnc(-c3noc(C4(OC)CC4)n3)c1C2 [Compound 198],Ki,[1]; [4],< 100 nM
same,activation at 0.1 µM,[2]; [5],20 to 50%
Cn1cc2c(n1)-c1cc(Cl)ccc1-n1cnc(-c3noc(C4CC4)n3)c1C2 [Compound 142],Ki,[1],< 100 nM
same,activation at 0.1 µM,[2]; [3],20 to 50%
COc1ccc2c(c1)-c1nn(Cc3cccnc3)cc1Cc1c(-c3nc(C(C)C)no3)ncn1-2 [Compound 125],Ki,[1],< 100 nM
same,activation at 0.1 µM,[2]; [3],20 to 50%
COc1ccc2c(c1)-c1nn(C)cc1Cc1c(-c3noc(C4CC4)n3)ncn1-2 [Compound 132],Ki,[1]; [4],< 100 nM
same,activation at 0.1 µM,[2]; [5],20 to 50%
COc1ccc2c(c1)-c1nn(C)cc1Cc1c(-c3nc(C)no3)ncn1-2 [Compound 20],Ki,[1],< 100 nM
same,activation at 0.1 µM,[2]; [3],5 to 20%
COc1ccc2c(c1)-c1nn(CC3CCCO3)cc1Cc1c(-c3noc(C(C)(C)OC)n3)ncn1-2 (stereo not drawn) [Compound 283],Ki,[1],< 100 nM
same,activation at 0.1 µM,[2]; [3],> 50%
CCn1cc2c(n1)-c1cc(Cl)ccc1-n1cnc(C3=N[C@@H](C(C)C)CO3)c1C2 [Compound 180],Ki,[1],< 100 nM
CCn1cc2c(n1)-c1cc(OC)ccc1-n1cnc(-c3noc(C4(OC)CC4)n3)c1C2 [Compound 340],Ki,[1]; [4],< 100 nM
CC(C)c1noc(-c2cnc3n2Cc2nncn2-c2cc(Cl)ccc2-3)n1 [Compound 58],Ki,[1]; [4],> 1000 nM
Cn1cc(-c2ncn3c2Cc2cn[nH]c2-c2cc(Cl)ccc2-3)cn1 [Compound 62],Ki,[1],100 to 1000 nM
COCCOCc1coc(-c2ncn3c2Cc2cn(C)nc2-c2cc(Cl)ccc2-3)n1 [Compound 278],Ki,[1],< 100 nM
COCc1noc(-c2ncn3c2Cc2cn(CC4CCOC4)nc2-c2cc(Cl)ccc2-3)n1 (stereo not drawn) [Compound 351],Ki,[1],< 100 nM
Clc1ccc2c(c1)-c1nn(CC3CCCO3)cc1Cc1c(-c3cnn(Cc4ccccn4)c3)ncn1-2 (stereo not drawn) [Compound 320],Ki,[1],< 100 nM
Clc1ccc2c(c1)-c1nn(CC3CCCO3)cc1Cc1c(-c3noc(C4CCOCC4)n3)ncn1-2 (stereo not drawn) [Compound 362],Ki,[1],< 100 nM
FC(F)(F)c1noc(-c2ncn3c2Cc2cn(CC4CCCO4)nc2-c2cc(Cl)ccc2-3)n1 (stereo not drawn) [Compound 227],Ki,[1],< 100 nM
COc1ccc2c(c1)-c1nn(CCOC(F)(F)F)cc1Cc1c(-c3noc(C4(OC)CC4)n3)ncn1-2 [Compound 330],Ki,[1],< 100 nM
COc1ccc2c(c1)-c1c(cnn1C)Cc1c(-c3nc(C(C)C)no3)ncn1-2 [Compound 47],Ki,[1],100 to 1000 nM
CN1C(=O)Cn2c(C3=N[C@H](c4ccccc4)CO3)cnc2-c2ccc(Cl)cc21 [Compound 29],Ki,[1]; [4],> 1000 nM
COc1ccc2c(c1)-c1c(cnn1CC1CCOC1)Cc1c(-c3nc(C(C)C)no3)ncn1-2 (stereo not drawn) [Compound 246],Ki,[1]; [4],< 100 nM
COc1ccc2c(c1)-c1nn(C)cc1Cc1c(-c3nc(CN(C(C)C)C(C)C)co3)ncn1-2 [Compound 380],Ki,[1],< 100 nM
COc1ccc2c(c1)-c1nn(C)cc1Cc1c(-c3noc(CC4COC4)n3)ncn1-2 [Compound 366],Ki,[1],< 100 nM
COc1ccc2c(c1)-c1nn(CCOC(F)(F)F)cc1Cc1c(-c3noc(C(C)(C)OC)n3)ncn1-2 [Compound 343],Ki,[1],< 100 nM
COc1ccc2c(c1)-c1nn(CCOC(F)(F)F)cc1Cc1c(-c3noc(C4CCOCC4)n3)ncn1-2 [Compound 327],Ki,[1],< 100 nM
Cn1cc2c(n1)-c1cc(Cl)ccc1-n1cnc(-c3nc(CN4CCCC4=O)co3)c1C2 [Compound 364],Ki,[1],< 100 nM
CCn1cc2c(n1)-c1cc(Cl)ccc1-n1cnc(-c3noc(CN4CCCC4)n3)c1C2 [Compound 350],Ki,[1],< 100 nM
Cn1cc2c(n1)-c1cc(Cl)ccc1-n1cnc(-c3noc(CCN4CCCC4)n3)c1C2 [Compound 385],Ki,[1],< 100 nM
Cc1ccc(-c2noc(C)c2COc2ccc(C(=O)NC3CCOCC3)nn2)cn1 [Compound 238],Ki,[1]; [4],< 100 nM
Cn1cc2c(n1)-c1cc(Cl)ccc1-n1cnc(-c3noc(Cn4cccc4)n3)c1C2 [Compound 371],Ki,[1],< 100 nM
COCc1noc(-c2ncn3c2Cc2cn(CC4CCOC4)nc2-c2cc(OC)ccc2-3)n1 (stereo not drawn) [Compound 299],Ki,[1]; [4],< 100 nM
COc1ccc2c(c1)-c1nn(C)cc1Cc1c(-c3noc(Cn4cccn4)n3)ncn1-2 [Compound 361],Ki,[1],< 100 nM
COCC(C)(C)c1nc(-c2ncn3c2Cc2cn(C)nc2-c2cc(OC)ccc2-3)no1 [Compound 377],Ki,[1],< 100 nM
COc1ccc2c(c1)-c1nn(C)cc1Cc1c(-c3nc(CN(C(C)=O)C(C)C)co3)ncn1-2 [Compound 381],Ki,[1]; [4],< 100 nM
COc1ccc2c(c1)-c1nn(Cc3ccccc3)cc1Cc1c(-c3nc(C(C)(C)C)no3)ncn1-2 [Compound 17],Ki,[1],< 100 nM
CCC(C)(OC)c1nc(-c2ncn3c2Cc2cn(C)nc2-c2cc(OC)ccc2-3)no1 (stereo not drawn) [Compound 353],Ki,[1]; [4],< 100 nM
CC#Cc1ncn2c1Cc1cn[nH]c1-c1cc(Cl)ccc1-2 [Compound 65],Ki,[1],< 100 nM
COc1ccc2c(c1)-c1oncc1Cc1c(-c3nc(C)no3)ncn1-2 [Compound 42],Ki,[1]; [4],> 1000 nM
COc1ccc2c(c1)-c1nn(CC3CCCO3)cc1Cc1c(-c3noc(C4(OC)CC4)n3)ncn1-2 (stereo not drawn) [Compound 323],Ki,[1],< 100 nM
COc1ccc2c(c1)-c1nn(C)cc1Cc1c(-c3nc(CN4CCCC4)co3)ncn1-2 [Compound 270],Ki,[1],100 to 1000 nM
Cn1ncc2c1-c1cc(Cl)ccc1-n1cnc(C#CC(C)(C)C)c1C2 [Compound 102],Ki,[1],< 100 nM
CCOC(=O)c1cnc2n1CC(=O)N(C)c1cc(Cl)ccc1-2 [Compound 28],Ki,[1],> 1000 nM
Cn1ncc2c1-c1cc(Cl)ccc1-n1cnc(-c3cnn(Cc4ccccc4)c3)c1C2 [Compound 164],Ki,[1],< 100 nM
COc1ccc2c(c1)-c1c(cnn1CC1CC1)Cc1c(-c3nc(C(F)(F)F)no3)ncn1-2 [Compound 117],Ki,[1],< 100 nM
Clc1ccc2c(c1)-c1nn(CC3CCOC3)cc1Cc1c(-c3cnn(Cc4ccccc4)c3)ncn1-2 (stereo not drawn) [Compound 229],Ki,[1]; [4],< 100 nM
COc1ccc2c(c1)-c1[nH]ncc1Cc1c(C3=CCCC3)ncn1-2 [Compound 74],Ki,[1]; [4],100 to 1000 nM
COc1ccc2c(c1)-c1nn(C)cc1Cc1c(-c3nc(COC4CCOC4)co3)ncn1-2 (stereo not drawn) [Compound 273],Ki,[1],< 100 nM
COc1ccc(Cn2ncc3c2-c2cc(OC)ccc2-n2cnc(C#Cc4ccnn4C)c2C3)cc1 [Compound 37],Ki,[1],100 to 1000 nM
Cn1cc2c(n1)-c1cc(Cl)ccc1-n1cnc(-c3nc(COC4CCOCC4)co3)c1C2 [Compound 346],Ki,[1]; [4],< 100 nM
COc1ccc2c(c1)-c1nn(C)cc1Cc1c(-c3noc(Cn4cccc4)n3)ncn1-2 [Compound 360],Ki,[1],< 100 nM
COC(C)(C)c1noc(-c2ncn3c2Cc2cn(CC4CCOC4)nc2-c2cc(Cl)ccc2-3)n1 (stereo not drawn) [Compound 367],Ki,[1],< 100 nM
COc1ccc2c(c1)-c1c(cnn1Cc1ccccc1)Cc1c(-c3nc(C(C)C)no3)ncn1-2 [Compound 8],Ki,[1],100 to 1000 nM
COc1ccc2c(c1)-c1c(cnn1C)Cc1c(-c3nc(CN4CCOCC4)no3)ncn1-2 [Compound 329],Ki,[1]; [4],100 to 1000 nM
COc1ccc2c(c1)-c1nn(C)cc1Cc1c(-c3nc(CN4CCCC4=O)co3)ncn1-2 [Compound 379],Ki,[1],< 100 nM
COc1ccc2c(c1)-c1nn(C)cc1Cc1c(-c3nc(C4CCOC4)co3)ncn1-2 (stereo not drawn) [Compound 262],Ki,[1]; [4],> 1000 nM
